# Assay results taken from US20250353873A1, “COMPOUNDS AND METHODS FOR MODULATING APOE EXPRESSION” (Ionis Pharmaceuticals, Inc., priority 2024, published 2025).
# “And” between values parts separate entries of the source, which are not always exact repeats. Equal entries are not always repeated. Strand notation (5' to 3'): a small letter for the sugar, then the base; units joined by * are phosphorothioate-linked, units joined directly phosphodiester-linked; [ ] holds rarer units or linkages, { } end groups; capitals alone tell only the bases. [PN] = cyclic guanidine phosphoramidate internucleoside linkage; [ms] = mesyl phosphoramidate linkage; e = 2'-O-(2-methoxyethyl) (MOE); [5mC] = 5-methylcytosine; d = 2'-deoxy (DNA)
# How the values were obtained:
# Type in all cases: in vivo
# [1] = system: human APOE RNA; assay: Duration of action study in APOE C57BL/6NTac-Apoeem7250 knock-in mice (Example 16); conditions: 300 μg ICV
# Description: Modified oligonucleotides described above were tested in the APOE C57BL/6NTac-Apoeem7250 knock-in mouse model described above.
# APOE C57BL/6NTac-Apoeem7250 knock-in mice were divided into groups of 2-4 mice each. Each mouse received a single intracerebroventricular (ICV) bolus of 300 μg of modified oligonucleotide. A group of 2-4 mice received a single ICV bolus with PBS as a negative control.
# Mice were sacrificed at various timepoints as indicated in the table below and RNA was extracted from cortical brain tissue and spinal cord for quantitative real-time RT-PCR analysis of RNA expression of APOE using primer probe set RTS3073 (described herein above). APOE RNA levels were normalized to mouse Ppia. Mouse Ppia was amplified using primer probe set m_cyclo24 (described herein above). Results are presented as percent human APOE RNA relative to the amount of human APOE RNA in PBS treated animals, (% control). Each experiment is identified in separate tables below.
# [2] = system: human APOE RNA; assay: Activity in APOE C57BL/6NTac-Apoeem7250 knock-in mice, single ICV bolus, 16 weeks (Example 12); conditions: single ICV bolus 300 μg, 16 weeks post treatment, normalized to mouse Ppia
# Summary of the method: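 Knock-in mice (3-4 per group) received one ICV bolus of 300 μg oligonucleotide, PBS as control. After 16 weeks, human APOE RNA in cortex and spinal cord measured by RT-qPCR, normalized to mouse Ppia, and reported as % of PBS control.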
# [3] = system: human APOE RNA; assay: Activity in APOE C57BL/6NTac-Apoeem7250 knock-in mice, single ICV bolus, 8 weeks (Example 11); conditions: single ICV bolus 300 μg, 8 weeks post treatment, normalized to mouse Ppia
# Summary of the method: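 Human APOE knock-in C57BL/6NTac mice given one ICV bolus of 300 μg oligonucleotide; PBS-dosed group as control. At 8 weeks, cortex and spinal cord RNA measured by qRT-PCR (human probe RTS3073), normalized to mouse Ppia, expressed as % of PBS control.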
Substance,APOE RNA (% control) Cortex ([1]; 14 days post-dose) [% control],APOE RNA (% control) Cortex ([1]; 112 days post-dose) [% control],APOE RNA (% control) Spinal Cord ([1]; 14 days post-dose) [% control],APOE RNA (% control) Spinal Cord ([1]; 112 days post-dose) [% control],APOE RNA (% control) Cortex ([2]; cortex) [% control],APOE RNA (% control) Spinal Cord ([2]; spinal cord) [% control],APOE RNA (% control) Cortex ([3]; cortex),APOE RNA (% control) Spinal Cord ([3]; spinal cord)
"1721307: 6-10-4 MOE gapmer CTTGGTGAATCTTTATTAAA, linkages s[pn][pn][pn]oossssssssssoss (e[5mC]*eT[PN]eT[PN]eG[PN]eGeTdG*dA*dA*dT*d[5mC]*dT*dT*dT*dA*dT*eTeA*eA*eA) [compound 1721307]",38,73,31,34,,,,
"1721306: 6-10-4 MOE gapmer TTGGTGAATCTTTATTAAAC, linkages s[pn][pn][pn]oosssssszzss[n]ss (as printed) (sugars from the 5' end e6 d10 e4, all C 5-methyl, backbone not given here; further chemistry not fully specified) [compound 1721306]",58,89,63,60,,,,
"1721309: 6-10-4 MOE gapmer CTTGGTGAATCTTTATTAAA, linkages s[pn][pn][pn]oossssssssss[pn]ss (e[5mC]*eT[PN]eT[PN]eG[PN]eGeTdG*dA*dA*dT*d[5mC]*dT*dT*dT*dA*dT*eT[PN]eA*eA*eA) [compound 1721309]",45,93,34,39,,,,
"1721310: 6-10-4 MOE gapmer CTTGGTGAATCTTTATTAAA, linkages s[pn][pn][pn]oossssssszzs[pn]ss (e[5mC]*eT[PN]eT[PN]eG[PN]eGeTdG*dA*dA*dT*d[5mC]*dT*dT*dT[ms]dA[ms]dT*eT[PN]eA*eA*eA) [compound 1721310]",35,88,38,65,,,,
"1652901: 6-10-4 MOE gapmer TTGGTGAATCTTTATTAAAC, linkages sooooossssssssssoss (antisense eT*eTeGeGeTeGdA*dA*dT*d[5mC]*dT*dT*dT*dA*dT*dT*eAeA*eA*e[5mC]) [compound 1652901]",43,90,33,51,104,61,47 % control and 49 % control,18 % control and 27 % control
"1721308: 6-10-4 MOE gapmer CTTGGTGAATCTTTATTAAA, linkages s[pn][pn][pn]oossssssszzsoss (e[5mC]*eT[PN]eT[PN]eG[PN]eGeTdG*dA*dA*dT*d[5mC]*dT*dT*dT[ms]dA[ms]dT*eTeA*eA*eA) [compound 1721308]",48,85,45,42,,,,
